From patent US9549943B2, “A3 adenosine receptor ligands for use in treatment of a sexual dysfunction” (CAN-FITE BIOPHARMA LTD., priority 2012, dated 2017)

Assays:
[1] = test system: patients with moderated to severe Plaque Psoriasis (PS); experiment: Phase 2 study of oral CF101 in Plaque Psoriasis; sexual effects; type: in vivo, human; conditions: CF101 1 mg, 2 mg and 4 mg orally twice daily for 12 weeks
Experimental: In a further Phase 2 study, randomized, double-blind, dose-ranging, placebo-controlled study was conducted to determine safety and activity of CF101 administered orally in patients with moderated to severe Plaque Psoriasis (PS). CF101 was administered at 1 mg. 2 mg and 4 mg twice daily for 12 weeks.

[2] = test system: patients with active rheumatoid arthritis (RA); experiment: Phase 2 study of oral CF101 added to weekly Methotrexate in rheumatoid arthritis; sexual effects; type: in vivo, human; conditions: CF101 0.1 mg or 1 mg tablets orally every 12 h for 12 weeks, with weekly MTX
Experimental: Phase 2 study in patients with active rheumatoid arthritis (RA) (randomized, double-blind, placebo-controlled), treated in parallel with CF101 administrated orally when added to weekly Methotrexate (MTX). The patients were given CF101 either 0.1 mg or 1 mg tablets or placebo tablets, taken orally every 12 h for 12 weeks. Washout of other disease-modifying antirheumatic drugs (DMARDs), including biological agents was occurring prior to dosing.

[3] = test system: Patients with Moderate-to-Severe Dry Eye Disease; experiment: Phase 3 clinical study of oral CF101 in dry eye disease; patient-reported sexual effects; type: in vivo, human
Source text: The clinical study (the “Study”) was a Phase 3, Randomized, Double-Masked, Placebo-Controlled, Dose-Finding, Parallel-Group Study of the Safety and Efficacy of Daily CF101 Administered Orally in Patients with Moderate-to-Severe Dry Eye Disease, keratoconjunctivitis sicca (KCS). CF101 is an experimental pharmaceutical composition where the active ingredient is IB-MECA. The study had two primary objectives: (i) determine the efficacy of oral administered CF101, as compared to placebo, when administered at doses of either 0.1 mg or 1.0 mg (namely 0.1 and 1 mg of IB-MECA per each administration, respectively) twice daily for 24 weeks in patients with KCS, and (ii) determine the safety of this drug in the patients. Patients were randomized to receive pills of either CF101 0.1 mg, CF101 1.0 mg, or matching placebo, given orally twice daily (BID) for 24 weeks. A Screening Period of up to 4 weeks that includes a 2-week run-in period that preceded the 24-week treatment period, followed by a 2-week follow-up period. The patients that were enrolled in the study had to meet a number of inclusion criteria (namely criteria that had to be matched for a human subject to participate in the study), including (i) being 18 years of age and over, (ii) being diagnosed with moderate-to-severe Aqueous-Deficient Dry Eye (including Sjögren's Syndrome dry eye), as defined by acceptable clinical criteria, and (iii) a variety of other criteria. Patients that met certain exclusion criteria that related to certain ophthalmic conditions and use of other medications. Clinical outcome in improving KCS symptoms was determined through a variety of relevant ophthalmic parameters. In addition, adverse events were recorded for each patient throughout the study and all effects reported by patients were reported. By the time of filing this patent application the study was still ongoing. […] It should be noted that at this time of reporting of these events the study was still masked, namely it is not known whether the patients received CF101 or placebo and if CF101 than the dose of the drug.

Male C57BL/6j mice = experiment: Concanavalin A mouse model treated with allosteric enhancer; erection observed; type: in vivo; conditions: 100 μg/kg orally 8 h after Con.A and 2 h before termination, no signs in control-untreated group
Experimental: Male C57BL/6j mice, 8 weeks of age, were injected intravenously (tail vein) with concanavalin A (Con.A) (20 mg/kg). twenty four hours after Con.A injection, levels of alanine aminotransferase (ALT) and aspirate aminotransferase (AST) were measured in the serum.
The allosteric compound, Luf6000 (also known as N-(3,4-dichloro-phenyl)-2-cyclohexyl-1H-imidazo[4,5-c]quinolin-4-amine), was orally administered at a dose of 100 μg/kg 8 h after Con.A administration and 2 h before termination.

SMILES | erection or increase in sexual desire in patients [1] | erection or increase in sexual desire in patients [2] | erection or increase in sexual desire in patients ([3]; oral CF101, patients with moderate to severe dry eye disease (summary statement)) | period during which erection occurred every day after each intake ([3]; patient) | sexual potency reported by patient ([3]; patient (code 104507), oral, twice daily, 0.1 mg or 1 mg, study still masked) | time after intake to unprovoked erection ([3]; patient, after each CF101 intake) | erection reported by patient after intake ([3]; patient, oral, twice daily, 0.1 mg or 1 mg, study still masked) | erection in treated mice (Male C57BL/6j mice) | erection in treated mice (Male C57BL/6j mice; listed as LUF6000)
CNC(=O)[C@H]1O[C@@H](n2cnc3c(NCc4cccc(I)c4)ncnc32)[C@H](O)[C@@H]1O [CF101, N^6-(3-iodobenzyl)-adenosine-5′-N-methyluronamide] | some of the patients experienced erection or increase in sexual desire | some of the patients experienced erection or increase in sexual desire | some of the patients experienced erection or increase in sexual desire | about 10 days | increase of sexual potency | around 30 minutes | unprovoked erection | – | –
Clc1ccc(Nc2nc3ccccc3c3[nH]c(C4CCCCC4)nc23)cc1Cl [Luf6000, N-(3,4-dichloro-phenyl)-2-cyclohexyl-1H-imidazo[4,5-c]quinolin-4-amine] | – | – | – | – | – | – | – | erection was noticed | exhibited erection
